Measurements reported in patent publication US5989846A, “Assays to identify inducers of plant defense resistance” (Rutgers, The State University of New Jersey, priority 1995, dated 1999).

Assays:
[1] = test system: salicylic acid binding protein; test: Competitive [14C] salicylic acid binding assay (spin-column); parameters: species or system tobacco; details: [14C] salicylic acid 20 μM
Summary of the method: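 Plant-fractionated binding protein incubated 2 hr at 4 °C with 5 μM-20 μM [14C]salicylic acid, with analogues added to the mixture as competitors. Bound ligand separated from free by spin-column gel exclusion (6 kDa limit) and counted; binding activity compared with analogue-free controls.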

[2] = target: T1, catalase activity of SABP (Nicotiana tabacum, UniProt P49319); test: Catalase activity of highly purified SABP (luminol method); type: biochemical, tobacco; details: 0.05 h; 1 mM SA or analogue, 1 mM H2O2, 500 ng highly purified SABP
T1 sequence (P49319 1-492): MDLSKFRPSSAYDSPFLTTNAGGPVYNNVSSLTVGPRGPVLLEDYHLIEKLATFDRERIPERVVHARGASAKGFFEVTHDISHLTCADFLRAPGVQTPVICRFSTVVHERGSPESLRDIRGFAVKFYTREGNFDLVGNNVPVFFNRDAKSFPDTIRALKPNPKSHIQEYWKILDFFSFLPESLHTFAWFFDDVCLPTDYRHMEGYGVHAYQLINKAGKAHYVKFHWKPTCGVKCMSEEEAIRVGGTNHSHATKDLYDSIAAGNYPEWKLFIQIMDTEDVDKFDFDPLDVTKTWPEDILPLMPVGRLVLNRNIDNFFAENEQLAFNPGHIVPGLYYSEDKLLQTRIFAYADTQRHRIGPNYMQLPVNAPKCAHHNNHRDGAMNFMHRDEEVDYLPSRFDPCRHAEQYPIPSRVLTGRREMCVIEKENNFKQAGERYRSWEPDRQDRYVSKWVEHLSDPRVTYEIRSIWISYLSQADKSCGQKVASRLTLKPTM
Experimental: Aliquots (50 μl) were removed from the assay mixture at 30 second intervals to assay for amount of H2 O2 remaining using the luminol method as has been described by Warm and Laties, Phytochem. […] The tube was placed in the measuring chamber and assay was initiated with automatic injection into the mixture of 100 μl of 0.5 mM K3 Fe(CN)6 in 0.2N NH4 OH, pH 9.5. Measurements were integrated over 5 second periods. H2 O2 was calculated from the standard curve constructed with known amounts of H2 O2. Rate constants of SABP catalase activity in the presence or absence of SA or its analogues were then calculated based on a first-order mechanism.

[3] = test system: catalases from non-plant sources; test: Inhibition of non-plant catalases by salicylic acid; type: biochemical; details: catalases from fungi and animals
Source text: Genes or cDNA copies for several of these catalases have been cloned (e.g. Scandalios, J. G. et al., Proc. Natl. Acad. Sci. USA, 77 (1980) 5360-5364; Bell, G. I. et al., Nucleic Acids Res., 14, (1986), 5561-5562; Hartig, A. et al., Eur. J. Biochem, 160, (1986) 487-490). A gene encoding one of these catalases can be introduced and expressed in a plant in the sense orientation using appropriate regulatory sequences (e.g. CaMV 35S promoter and nopaline synthase cleavage and polyadenylation signal) and vectors (e.g. PCGN 1540 or pCIB3064) as described in Example 25.

[4] = test system: plant processes; parameters: key: +: induces or enhances; -: reduces or inhibits; details: addition of salicylic acid to plants; cited from earlier work
[5] = test system: resistance or PR gene expression; parameters: key: ++: indicates a high level of biological activity; +: indicates a lower level of biological activity; ±: indicates low, but detectable biological activity in some assays; -: indicates no biological activity; details: Table 3; values reported in literature; cited from earlier work
[6] = test system: SABP; parameters: concentration or dose not given beside the values; details: Table 6; previously published data (Chen et al. 1993); cited from earlier work

SMILES: O=C(O)c1ccccc1O [salicylic acid, 2-hydroxybenzoic acid]
- Inhibition (%) 2× ([1]; 40 μM (2×) unlabeled competitor): 50%
- Inhibition (%) 10× ([1]; 200 μM (10×) unlabeled competitor): 91%
- inhibition at 1000 µM [2]: 80%
- Sensitivity of non-plant catalases to inhibition [3]: insensitive to inhibition
- Effect on Adventitious root initiation [4]: +
- Effect on Alternative pathway [4]: +
- Effect on Disease resistance [4]: +
- Effect on Ethylene biosynthesis [4]: -
- Effect on Flowering [4]: +
- Effect on Fruit yield [4]: +
- Effect on Gene regulation [4]: +
- Effect on Glycolysis [4]: +
- Effect on Growth inhibition [4]: +
- Effect on Krebs cycle [4]: +
- Effect on Leaf abscission [4]: -
- Effect on Photonastic leaflet movement [4]: +
- Effect on Potassium ion absorption [4]: -
- Effect on Scotonastic leaflet movement [4]: -
- Effect on Seed germination [4]: - and +
- Effect on Somatic embryogenesis [4]: -
- Effect on Stomatal closure [4]: -
- Effect on Thermogenesis [4]: +
- Effect on Transpiration [4]: -
- Effect on Wound response [4]: -
- Biological activity [5]: ++
- Inhibition (%) [14C]SA binding [6]: 89%
